In US9557333B2, “Methods of treating gastrointestinal sarcoma patients depending on their sB7H6 serum level” (INSTITUT GUSTAVE ROUSSY, priority 2012, dated 2017):

Experiments:
sB7H6 = assay: Serum sB7H6 measured by ELISA longitudinally during IM treatment of GIST patients; type: in vivo, human
Experimental: 49 GIST patients were treated with imatinib (IM) from May 1994 until October 2010 (BFR14 cohort). Patients' samples were provided by the Gustave Roussy Institute (Villejuif, France) and the Centre Léon Bérard (Lyon). Sera were drained from blood drawn during control visits. Clinical responses were assessed by computed tomography (CT) scan and the responses were classified according to the RECIST criteria.
(§1) sB7H6 and sMIC were assessed from the sera of patients by the ELISA method.
Soluble B7-H6 detection was assessed from sera of patients by the ELISA method: 17B1.3 mAbs was coated at 5 μg/ml in 0.1 M NaHCO3 solution overnight at 4° C. in 96-well Nunc-Immuno™ plates (Thermo Scientific). Blocking solution (PBS supplemented with 3% BSA) was then added overnight at 4° C. After discarding this solution, serial dilutions of sB7-H6 were incubated for 3 hours at room temperature. Then biotin-conjugated 9G9.2 was added to each well (1 μg/ml in PBS supplemented with 1% BSA) for 1 hour at room temperature. Anti-biotin HRP (Sigma-Aldrich) was then added for 1 hour at room temperature. Finally, BD Optia TMB substrate (BD Biosciences) was used to reveal the staining and left to incubate for 15-30 minutes at room temperature. The reaction was stopped with 1 M HCl and the optic density (OD) at 450 nm was read with Apollo LB 911 from Berthold.

sMIC = assay: Serum sMIC measured by ELISA longitudinally during IM treatment of GIST patients; type: in vivo, human; conditions: followed during treatment
Experimental: 49 GIST patients were treated with imatinib (IM) from May 1994 until October 2010 (BFR14 cohort). Patients' samples were provided by the Gustave Roussy Institute (Villejuif, France) and the Centre Léon Bérard (Lyon). Sera were drained from blood drawn during control visits. Clinical responses were assessed by computed tomography (CT) scan and the responses were classified according to the RECIST criteria. GIST tumor samples were obtained following surgery carried out at the Gustave Roussy Institute (Villejuif, France).
as §1

Cc1ccc(NC(=O)c2ccc(CN3CCN(C)CC3)cc2)cc1Nc1nccc(-c2cccnc2)n1 [IM, imatinib]
levels of sB7H6 in sera after 1 year of IM treatment (sB7H6; after 1 year of treatment): not detected | levels of sB7H6 in sera during IM treatment (sB7H6; followed with time of treatment): decreased with the time of treatment | levels of sMIC in sera following IM treatment (sMIC): tend to decrease
